Test results published in patent US20100222302A1, “Novel Antibacterial Compounds” (priority 2005, published 2010).
≈ marks a conversion by molar mass, not a printed value.

Tests used:
Assay in all cases: MIC by broth microdilution (NCCLS M7-A4)
Type in all cases: cell-based
S. aureus A798 = details: Staphylococcus aureus, cation-adjusted Mueller-Hinton Broth, pH 7.2-7.3
Method: (§1) These assays have been performed following the description given in “Methods for dilution Antimicrobial Susceptibility Tests for Bacteria that Grow Aerobically, 4th ed.; Approved standard: NCCLS Document M7-A4; National Committee for Clinical Laboratory Standards Villanova, Pa., USA, 1997”. Minimal inhibitory concentrations (MICs; mg/l) were determined in cation-adjusted Mueller-Hinton Broth (BBL) by a microdilution method following NCCLS guidelines (National Committee for Clinical Laboratory Standards. Methods for Dilution Antimicrobial Susceptibility). The pH of the test medium was 7.2-7.3. All the above Examples were tested against several Gram positive and Gram negative bacteria.

M catarrhalis A894 = details: cation-adjusted Mueller-Hinton Broth, pH 7.2-7.3
Method: as §1

S Pneunoniae 49619 = details: cation-adjusted Mueller-Hinton Broth, pH 7.2-7.3
Method: as §1

| MIC (S. aureus A798) | MIC (M catarrhalis A894) | MIC (S Pneunoniae 49619) | Compound |
| --- | --- | --- | --- |
| ≤ 0.063 µg/mL | ≤ 0.063 µg/mL | ≤ 0.063 µg/mL | CC(=O)NC[C@H]1CN(c2ccc(OC[C@]3(O)C[C@H]4COc5c(c(F)cc6c(=O)c(C(=O)O)cn(C7CC7)c56)N4C3)c(F)c2)C(=O)O1 [Example 2, (13S,16S)-16-{4-[(5S)-5-(acetylamino-methyl)-2-oxo-oxazolidin-3-yl]-2-fluoro-phenoxymethyl}-1-cyclopropyl-7-fluoro-16-hydroxy-4-oxo-1,4,13,15,16,17-hexahydro-12H-11-oxa-1,14-diaza-cyclopenta[a]phenanthrene-3-carboxylic acid] |
| ≤ 0.063 µg/mL | ≤ 0.063 µg/mL | ≤ 0.063 µg/mL | O=C(O)c1cn(C2CC2)c2c3c(c(F)cc2c1=O)N1C[C@](O)(COc2ccc(N4C[C@H](Cn5ccnn5)OC4=O)cc2F)C[C@H]1CO3 [Example 1, (13S,16S)-1-cyclopropyl-7-fluoro-16-[2-fluoro-4-((5R)-2-oxo-5-[1,2,3]triazol-1-ylmethyl-oxazolidin-3-yl)-phenoxymethyl]-16-hydroxy-4-oxo-1,4,13,15,16,17-hexahydro-12H-11-oxa-1,14-diaza-cyclopenta[a]phenanthrene-3-carboxylic acid] |
| ≤ 0.063 µg/mL | 0.25 µg/mL (≈ 0.384 µM) | ≤ 0.063 µg/mL | O=C(O)c1cn(C2CC2)c2c3c(c(F)cc2c1=O)N1C[C@](O)(COc2ccc(N4C[C@H](Cn5ccnn5)OC4=O)cc2F)C[C@@H]1CO3 [Example 4, (13R,16S)-1-cyclopropyl-7-fluoro-16-[2-fluoro-4-((5R)-2-oxo-5-[1,2,3]triazol-1-ylmethyl-oxazolidin-3-yl)-phenoxymethyl]-16-hydroxy-4-oxo-1,4,13,15,16,17-hexahydro-12H-11-oxa-1,14-diaza-cyclopenta[a]phenanthrene-3-carboxylic acid] |
